From patent US20260217701A1, “SELECTIVE BET INHIBITORS AND USES THEREOF” (Tay Therapeutics Limited, priority 2022, published 2026)

Tests used:
Format in all cases: in vivo, C57BI/6J mice
[1] = Bleomycin IPF model: body weight and mortality; design: Mean Body Weight Change: unit not given here; details: for Mean Body Weight Change: Bleo + Pirfenidone (300 mg/kg) OG QOD from D7
Experimental: (§1) Male C57BI/6J mice, aged 12 weeks with an approximate weight of 25-30 g were obtained from Jackson Laboratories (Bar Harbor, ME). Animals were acclimated for two weeks prior to study initiation, and were randomized into the experimental groups outlined in Table 32.
(§2) Intratracheal (IT) administration of Bleo or PBS control was conducted at the start of the study (Day 0). […] Animals were weighed on Day 0, and indexed boluses of PBS control (Group 1) or Bleo (Groups 2-6) were delivered by IT administration.
Following administration of Bleo, animals (n=10/group) were included in the study if they met the following guidelines on Day 7: (1) a predictable 5% loss in body weight, and (2) the presence of fibrotic pulmonary lesions, detected by micro-CT imaging. 10 animals from Group 1 additionally proceeded as controls. Animals that continued in the study on Day 7 received an oral gavage (OG) administration of PBS, Compound A (1 mg/kg, 3 mg/kg, 10 mg/kg), or Pirfenidone (300 mg/kg), as outlined in Table 31 in 25 μL boluses every other day (QOD), starting on Day 7. Compound A was formulated in 5% (v/v) DMSO/15% (v/v) PEG 400/80% (v/v) E-TPGS in purified water. […]

[2] = tested on: idiopathic pulmonary fibrosis (bleomycin); assay: Bleomycin IPF model: lung histology, Masson's Trichrome with Ashcroft scoring
Experimental: Animals were acclimated for two weeks prior to study initiation, and were randomized into the experimental groups outlined in Table 32. Intratracheal (IT) administration of Bleo or PBS control was conducted at the start of the study (Day 0). […] Following administration of Bleo, animals (n=10/group) were included in the study if they met the following guidelines on Day 7: […] A resection of the right lung was weighed and homogenized to determine total hydroxyproline levels by colorimetric assay, and the remaining lung lysate was saved for future analyses. For the morphological assessments, the left lung was inflation-fixed at 25 cm of water pressure with 4% paraformaldehyde in PBS for 1 minute, processed, and then sectioned. Morphological analysis of the lung was conducted using H&E-stained slides. Additional histologic stains for morphological analyses included Masson's Trichrome staining with Ashcroft scoring to determine severity of fibrosis.

[3] = tested on: idiopathic pulmonary fibrosis (bleomycin); assay: Bleomycin IPF model: oxygen saturation (pulse oximetry); details: Bleo + Pirfenidone (300 mg/kg) OG QOD from D7
Experimental: as §1, §2
(§3) Following administration of Bleo, animals (n=10/group) were included in the study if they met the following guidelines on Day 7: (1) a predictable 5% loss in body weight, and (2) the presence of fibrotic pulmonary lesions, detected by micro-CT imaging. 10 animals from Group 1 additionally proceeded as controls. Animals that continued in the study on Day 7 received an oral gavage (OG) administration of PBS, Compound A (1 mg/kg, 3 mg/kg, 10 mg/kg), or Pirfenidone (300 mg/kg), as outlined in Table 31 in 25 μL boluses every other day (QOD), starting on Day 7. Compound A was formulated in 5% (v/v) DMSO/15% (v/v) PEG 400/80% (v/v) E-TPGS in purified water.
Body weights were obtained at Day 0 at the start of the study, and again at Day 7 to determine if an animal continued in the study. Body weight was measured daily from Day 7 until Day 21, and oxygen saturation was measured by a pulse oximetry (MouseOx) system QOD from Day 7 until study completion on Day 21, and results were plotted and analyzed by Kaplan-Meier plots.

[4] = tested on: idiopathic pulmonary fibrosis (bleomycin); assay: Bleomycin IPF model: functional lung volume by micro-CT; design: Functional Lung Volume, Mean: unit not given here; details: Day 21
Experimental: Animals were acclimated for two weeks prior to study initiation, and were randomized into the experimental groups outlined in Table 32. Intratracheal (IT) administration of Bleo or PBS control was conducted at the start of the study (Day 0). […] Following administration of Bleo, animals (n=10/group) were included in the study if they met the following guidelines on Day 7: […] Micro-CT imaging was also performed on Day 7 to determine relative fibrosis and on Day 21. […] Images were acquired with a respiratory gated technique with the following parameters: X-ray tube voltage: 90 KV; X-ray tube current: 88 μA; total scan time: 4 minutes. The system was calibrated monthly with standard phantoms for noise, uniformity, low contrast, and resolution to ensure consistency.

hydroxyproline = assay: Bleomycin IPF model: hydroxyproline content in lung lysates; design: Hydroxyproline Levels, Mean: unit not given here; details: Bleo + Pirfenidone (300 mg/kg) OG QOD from D7
Experimental: as §1, §2, §3
Animals were euthanized on Day 21 following Micro-CT imaging, and the right lung was collected for biochemical analysis, and the left lung was inflation-fixed for morphological assessments. A resection of the right lung was weighed and homogenized to determine total hydroxyproline levels by colorimetric assay, and the remaining lung lysate was saved for future analyses.

[5] = Bleo + Pirfenidone (300 mg/kg) OG QOD from D7

SMILES: Cc1ccc(=O)n(-c2ccccc2)c1 [Pirfenidone, reference compound]
- Mean Body Weight Change ([1]; Day 1): 2.308
- Mean Body Weight Change ([1]; Day 2): −0.484
- Mean Body Weight Change ([1]; Day 3): 0.051
- Mean Body Weight Change ([1]; Day 4): 4.604
- Mean Body Weight Change ([1]; Day 5): −5.992
- Mean Body Weight Change ([1]; Day 6): −9.221
- Mean Body Weight Change ([1]; Day 7): −11.372
- Mean Body Weight Change ([1]; Day 8): −14.446
- Mean Body Weight Change ([1]; Day 9): −14.694
- Mean Body Weight Change ([1]; Day 10): −15.574
- Mean Body Weight Change ([1]; Day 11): −14.209
- Mean Body Weight Change ([1]; Day 12): −13.437
- Mean Body Weight Change ([1]; Day 13): −12.258
- Mean Body Weight Change ([1]; Day 14): −12.644
- Mean Body Weight Change ([1]; Day 15): −13.627
- Mean Body Weight Change ([1]; Day 16): −13.391
- Mean Body Weight Change ([1]; Day 17): −13.251
- Mean Body Weight Change ([1]; Day 18): −15.138
- Mean Body Weight Change ([1]; Day 19): −14.921
- Mean Body Weight Change ([1]; Day 20): −15.674
- Mean Body Weight Change ([1]; Day 21): −15.557
- Body weight compared with Bleo+Saline treated animals ([1]; Compound A (all doses tested), Pirfenidone (300 mg/kg)): No significant difference
- Ashcroft Scoring, Max [2, 5]: 6
- Ashcroft Scoring, Mean [2, 5]: 5.125
- Ashcroft Scoring, Min [2, 5]: 4
- Ashcroft scores relative to IPF control group ([2]; Day 21, Group 6, 300 mg/kg): significantly reduced Ashcroft scores
- Fibrosis in lung tissue (Masson's Trichrome) compared to Group 2 (Bleo+Saline) ([2]; Group 5 (Compound A 10) and Group 6 (Pirfenidone)): qualitatively diminished
- Mean Oxygen Saturation ([3]; Day 7): 81.08
- Mean Oxygen Saturation ([3]; Day 9): 84.55
- Mean Oxygen Saturation ([3]; Day 11): 83.32
- Mean Oxygen Saturation ([3]; Day 13): 84.28
- Mean Oxygen Saturation ([3]; Day 15): 87.03
- Mean Oxygen Saturation ([3]; Day 17): 87.08
- Mean Oxygen Saturation ([3]; Day 19): 89.13
- Mean Oxygen Saturation ([3]; Day 21): 89.18
- Functional Lung Volume, Mean [4, 5]: 445.7025
- Functional lung volume relative to Group 2 ([4]; Group 6, Pirfenidone 300 mg/kg): significantly increased
- Hydroxyproline Levels, Mean (hydroxyproline): 0.055
